Assay: Toxicity in iv dosed Swiss-Webster mouse
Format: organism-based
Conditions: in vivo

Row | Structure (SMILES) | LD50 [mg/kg]
1 | CO[C@H]1[C@@H]2C[C@@H]3[C@H]1[C@](O)(C[C@@H]2OC)[C@]1(O)C2N=C[C@]4(COC(=O)c5ccccc5N5C(=O)CC(C)C5=O)CC[C@H](OC)[C@@]23[C@@H]4[C@@H]1OC (stereo partly drawn) [ANHWEIDELPHININE] | > 177
2 | CCN1C[C@]2(CO)CC[C@H](OC)[C@@]34[C@@H]5C[C@H]6[C@H](OC)[C@@H]5[C@](O)(C[C@@H]6OC)[C@](O)([C@@H](OC)[C@H]23)[C@@H]14 [LYCOCTONINE] | 444
3 | CO[C@H]1[C@@H]2C[C@@H]3[C@H]1[C@](O)(C[C@@H]2OC)[C@]1(O)C2NC[C@]4(COC(=O)c5ccccc5N5C(=O)CC(C)C5=O)CC[C@H](OC)[C@@]23[C@@H]4[C@@H]1OC (stereo partly drawn) | 100
4 | CCN1C[C@]2(COC(=O)c3ccccc3N3C(=O)CC(C)C3=O)CC[C@H](OC)[C@]34C1[C@](O)([C@@H](OC)[C@H]23)[C@@]1(O)C[C@H](OC)[C@H]2C[C@@H]4[C@@H]1[C@H]2O (stereo partly drawn) | 4
5 | CCN1C[C@]2(C)CC[C@H](OC)[C@@]34C1[C@]1(OCO[C@@]15C[C@H](OC)[C@H]1C[C@]3(O)[C@@H]5[C@H]1OC)[C@@H](OC(C)=O)[C@H]24 [DELTALINE] | 200
6 | CO[C@H]1[C@@H]2C[C@@H]3[C@H]1[C@](O)(C[C@@H]2OC)[C@]1(O)C2NC(=O)[C@]4(COC(=O)c5ccccc5N5C(=O)CC(C)C5=O)CC[C@H](OC)[C@@]23[C@@H]4[C@@H]1OC (stereo partly drawn) [ZALILINE] | > 230
7 | CCN1C[C@]2(COC(=O)c3ccccc3N3C(=O)C[C@H](C)C3=O)CC[C@H](OC)[C@@]34[C@@H]5C[C@H]6[C@H](OC)[C@@H]5[C@](O)(C[C@@H]6OC)[C@](O)([C@@H](OC)[C@H]23)[C@@H]14 [METHYLLYCACONITINE] | 7.5
8 | CCN1C[C@]2(COC(=O)c3ccccc3N3C(=O)C[C@H](C)C3=O)CC[C@H](OC)[C@@]34C1[C@@]1(OCO[C@@]15C[C@H](OC)[C@H]1C[C@@H]3[C@@H]5[C@H]1OC)[C@@H](OC)[C@H]24 [ELATINE] | 9.2
9 | CCN1C[C@]2(COC(=O)c3ccccc3N)CC[C@H](OC)[C@]34C1[C@](O)([C@@H](OC)[C@H]23)[C@@]1(O)C[C@H](OC)[C@H]2C[C@@H]4[C@@H]1[C@H]2OC [ANTHRANOYLLYCOCTONINE] | 20.8
10 | CCN1C[C@]2(COC(=O)c3ccccc3N3C(=O)CC(C)C3=O)CC[C@H](OC)[C@]34C1[C@](O)([C@@H](OC)[C@H]23)[C@@]1(O)C[C@H](OC)[C@H]2C[C@@H]4[C@@H]1C2=O (stereo partly drawn) [BARBININE] | 57
11 | CCN1C[C@]2(C)CC[C@H](OC)[C@@]34C1[C@]1(OCO[C@@]15C[C@H](OC)[C@H]1C[C@]3(O)[C@@H]5[C@H]1O)[C@@H](OC(C)=O)[C@H]24 [DICTYOCARPINE] | 283
12 | CO[C@H]1[C@@H]2C[C@]3(O)[C@H]1[C@@]1(C[C@@H]2OC)OCO[C@]12C1NC[C@]4(C)CC[C@H](OC)[C@@]13[C@@H]4[C@@H]2OC(C)=O | 210
13 | CCN1C[C@]2(COC(=O)c3ccccc3N3C(=O)C[C@H](C)C3=O)CC[C@H](OC)[C@]34C5C[C@@H]6[C@@H](OC)C[C@@](O)(C5[C@H]6OC(C)=O)[C@](O)(C13)[C@@H](OC)C24 (stereo partly drawn) [NUDICAULINE] | 2.7

Source: ChEMBL document CHEMBL1148100, “Structure-activity relationships of norditerpenoid alkaloids occurring in toxic larkspur (Delphinium) species” (J Nat Prod, 1995)
